{"source": "patent US10392367B2", "about": "“IRE1 small molecule inhibitors” (QUENTIS THERAPEUTICS, INC., priority 2017, dated 2019)", "key": {"[1]": {"molecular_target": "T1, IRE1a (Homo sapiens, UniProt O75460)", "T1 sequence (O75460 19-977)": "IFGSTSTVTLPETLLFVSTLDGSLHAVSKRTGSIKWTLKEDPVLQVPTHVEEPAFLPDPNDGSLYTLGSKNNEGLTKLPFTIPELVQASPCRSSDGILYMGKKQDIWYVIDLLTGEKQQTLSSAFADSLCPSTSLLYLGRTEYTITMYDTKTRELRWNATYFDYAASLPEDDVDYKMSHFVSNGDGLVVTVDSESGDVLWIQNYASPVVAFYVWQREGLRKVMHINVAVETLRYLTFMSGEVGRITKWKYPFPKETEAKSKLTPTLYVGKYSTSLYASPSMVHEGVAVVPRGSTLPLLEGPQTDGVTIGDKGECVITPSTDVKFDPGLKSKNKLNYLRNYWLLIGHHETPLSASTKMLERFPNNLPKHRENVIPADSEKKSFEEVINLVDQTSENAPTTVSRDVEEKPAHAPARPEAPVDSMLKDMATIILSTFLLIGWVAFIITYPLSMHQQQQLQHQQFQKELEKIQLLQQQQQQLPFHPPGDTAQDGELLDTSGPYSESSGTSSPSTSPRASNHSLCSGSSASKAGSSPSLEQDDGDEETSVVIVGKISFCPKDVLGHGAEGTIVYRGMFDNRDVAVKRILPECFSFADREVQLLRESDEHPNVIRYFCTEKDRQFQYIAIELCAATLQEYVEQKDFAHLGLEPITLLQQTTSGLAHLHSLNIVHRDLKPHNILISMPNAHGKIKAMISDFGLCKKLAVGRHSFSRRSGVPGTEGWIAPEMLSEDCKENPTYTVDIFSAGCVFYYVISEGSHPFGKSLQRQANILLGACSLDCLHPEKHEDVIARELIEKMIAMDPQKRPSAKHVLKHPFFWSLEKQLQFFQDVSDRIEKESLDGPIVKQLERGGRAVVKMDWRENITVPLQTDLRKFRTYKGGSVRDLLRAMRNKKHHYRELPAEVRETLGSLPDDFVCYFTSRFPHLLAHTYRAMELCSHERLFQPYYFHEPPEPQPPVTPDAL", "assay": "In vitro FRET assay (XBP1 RNA probe cleavage by IRE1a)", "format": "biochemical", "set-up": "purchased SignalChem", "conditions": "SignalChem IRE1a protein 2 nM", "method": "In vitro FRET assay was performed to evaluate the ability of select compounds to inhibit IRE1, the results of which are summarized in Table 3. To perform the in vitro FRET assay, 1× complete assay buffer (CAB; […] DTT, 50 mM sodium citrate pH 7.15, 1 mM magnesium acetate, 0.02% tween 20) was used to dilute SignalChem IRE1a protein to a final concentration of 2 nM. Selected compounds were serially diluted with DMSO in a non-binding black 384-well plate for a total of 15 ul in each well. 2 ul of the serially diluted compound or DMSO control were then added to new wells containing 98 ul of 1×CAB, for a total volume of 100 ul, 10 ul of which were then transferred to wells of a new plate. 5 ul of the diluted IRE1a was then added to each well. 5 ul of a […] XBP1 RNA probe was then added to each well. Fluorescence was then read over 30 minutes in kinetic mode (485/515 nm).\nTwo RNA probes were used, XBP1 wildtype (SEQ ID NO: 2) which is able to be spliced by active IRE1a or XBP1 mutant (SEQ ID NO: 3) which is unable to be spliced. Each probe contained a 5′ 6-FAM modification and a 3′ IOWA Black FQ modification."}, "[2]": {"molecular_target": "T1, IRE1a", "assay": "IRE1a Endoribonuclease Nanoluciferase Assay (XBP1 luciferase reporter in 293 T cells)", "format": "cell-based", "conditions": "293 T cells transfected with XBP1 luciferase reporter plasmid", "method": "Compounds disclosed herein were assessed for disruption of IRE1 signaling using a IRE1a Endoribonuclease Nanoluciferase Assay. Briefly, 2.5×10^6 293 T cells were seeded in a 10 cm^2 tissue culture plate. About 24 hours later, the cells were transfected with Effectene. In a 15 mL Tube, the following was added: 2 μg XBP1 luciferase reporter plasmid (PGK-Luc2-P2A-XBP1u-Nanoluciferase-PEST); 300 μl EC buffer; and 16 μl Enhancer, followed by incubation at room temp for 5 minutes. Next, 60 μl Effectene (Qiagen 301427) was added, followed by incubation at room temperature for 10 minutes. 2.6 mL cDMEM media was added. Old media was aspirated from the cells, followed by addition of 7 mL fresh media. Full transfection mixture was added dropwise to cells. Cells were incubated for 6 hours, followed by tripsinization, centrifugation and resuspension in 11 mL media. 100 uL of cells were plated per a well in a 96 well plate. A day later, stressors of choice+/− inhibitors were added. To harvest, media was aspirated from cells completely, then 50 uL 1× passive lysis buffer (Promega: E1941) was added per well and put on shaker (300 rpm) for 30 minutes at room temperature. Cells were centrifuged, and 15 uL sample per well was added to a new, opaque white 384 well plate (Corning 3570). 15 uL OneGlo (nanoluciferase kit, Promega N1630) was added. Plates were spun down, placed on shaker (300 rpm) for 10 minutes. Plates were read on luminometer, 1000 ms integration time per well. 15 uL Stop and Glo (nanoluciferase kit) was added. Plates were spun down, placed on shaker (300 rpm) for 10 minutes. Plates were read on luminometer, 1000 ms second integration time per well. Recordings are provided below in Table 4."}}}
{"smiles": "CCc1cc(-c2cc(NC(=O)Cc3ccc(Cl)c(C(F)(F)F)c3)nn2C)cc2cnc(N[C@H]3CC[C@H](N)CC3)nc12", "note": "[Compound 18, N-(5-(2-(((1r,4r)-4-aminocyclohexyl)amino)-8-ethylquinazolin-6-yl)-1-methyl-1H-pyrazol-3-yl)-2-(4-chloro-3-(trifluoromethyl)phenyl)acetamide]", "values": [{"measurement": "IC50", "setting": "[1]", "result": "5 to 50", "unit": "nM"}, {"measurement": "EC50", "setting": "[2]", "result": "> 100", "unit": "nM"}]}
{"smiles": "CCc1cc(-c2cc(NC(=O)Cc3cc(C(F)(F)F)cc(C(F)(F)F)c3)nn2C)cc2cnc(N[C@H]3CC[C@H](N)CC3)nc12", "note": "[Compound 5, N-(5-(2-(((1r,4r)-4-aminocyclohexyl)amino)-8-ethylquinazolin-6-yl)-1-methyl-1H-pyrazol-3-yl)-2-(3,5-bis(trifluoromethyl)phenyl)acetamide]", "values": [{"measurement": "IC50", "setting": "[1]", "result": "5 to 50", "unit": "nM"}]}
{"smiles": "CCc1cc(-c2cc(NC(=O)Cc3cc(C(F)(F)F)ccc3C)nn2C)cc2cnc(N[C@H]3CC[C@H](N)CC3)nc12", "note": "[Compound 34, N-(5-(2-(((1r,4r)-4-aminocyclohexyl)amino)-8-ethylquinazolin-6-yl)-1-methyl-1H-pyrazol-3-yl)-2-(2-methyl-5-(trifluoromethyl)phenyl)acetamide]", "values": [{"measurement": "IC50", "setting": "[1]", "result": "≤ 5", "unit": "nM"}, {"measurement": "EC50", "setting": "[2]", "result": "5 to 50", "unit": "nM"}]}
{"smiles": "CCc1cc(-c2cc(CC(=O)Nc3cccc(C(F)(F)F)c3)nn2C)cc2cnc(N[C@H]3CC[C@H](N)CC3)nc12", "note": "[Compound 23, 2-(5-(2-(((1r,4r)-4-aminocyclohexyl)amino)-8-ethylquinazolin-6-yl)-1-methyl-1H-pyrazol-3-yl)-N-(3-(trifluoromethyl)phenyl)acetamide]", "values": [{"measurement": "IC50", "setting": "[1]", "result": "> 100", "unit": "nM"}]}
{"smiles": "CCc1cc(-c2cc(NC(=O)Nc3cccc(C(F)(F)F)c3)nn2C)cc2cnc(N[C@H]3CC[C@H](N)CC3)nc12", "note": "[Compound 19, 1-(5-(2-(((1r,4r)-4-aminocyclohexyl)amino)-8-ethylquinazolin-6-yl)-1-methyl-1H-pyrazol-3-yl)-3-(3-(trifluoromethyl)phenyl)urea]", "values": [{"measurement": "IC50", "setting": "[1]", "result": "≤ 5", "unit": "nM"}, {"measurement": "EC50", "setting": "[2]", "result": "5 to 50", "unit": "nM"}]}
{"smiles": "Cc1c(-c2cc(NC(=O)Cc3cc(C(F)(F)F)ccc3C(F)(F)F)nn2C)ccc2nc(N[C@H]3CC[C@H](N)CC3)ncc12", "note": "[Compound 45, N-(5-(2-(((1r,4r)-4-aminocyclohexyl)amino)-5-methylquinazolin-6-yl)-1-methyl-1H-pyrazol-3-yl)-2-(2,5-bis(trifluoromethyl)phenyl)acetamide]", "values": [{"measurement": "IC50", "setting": "[1]", "result": "> 100", "unit": "nM"}]}
{"smiles": "CCc1cc(-c2cc(NC(=O)Cc3ccc(C(F)(F)F)cc3)nn2C)cc2cnc(N[C@H]3CC[C@H](N)CC3)nc12", "note": "[Compound 6, N-(5-(2-(((1r,4r)-4-aminocyclohexyl)amino)-8-ethylquinazolin-6-yl)-1-methyl-1H-pyrazol-3-yl)-2-(4-(trifluoromethyl)phenyl)acetamide]", "values": [{"measurement": "IC50", "setting": "[1]", "result": "≤ 5", "unit": "nM"}, {"measurement": "EC50", "setting": "[2]", "result": "> 100", "unit": "nM"}]}
{"smiles": "CCc1cc(-c2cc(NC(=O)Cc3ccc(OCCCNC)c(C(F)(F)F)c3)nn2C)cc2cnc(N[C@H]3CC[C@H](N)CC3)nc12", "note": "[Compound 30, N-(5-(2-(((1r,4r)-4-aminocyclohexyl)amino)-8-ethylquinazolin-6-yl)-1-methyl-1H-pyrazol-3-yl)-2-(4-(3-(methylamino)propoxy)-3-(trifluoromethyl)phenyl)acetamide]", "values": [{"measurement": "IC50", "setting": "[1]", "result": "≤ 5", "unit": "nM"}, {"measurement": "EC50", "setting": "[2]", "result": "5 to 50", "unit": "nM"}]}
{"smiles": "CCc1cc(-c2cc(NC(=O)Cc3cc(C)cc(F)c3)nn2C)cc2cnc(N[C@H]3CC[C@H](N)CC3)nc12", "note": "[Compound 27, N-(5-(2-(((1r,4r)-4-aminocyclohexyl)amino)-8-ethylquinazolin-6-yl)-1-methyl-1H-pyrazol-3-yl)-2-(3-fluoro-5-methylphenyl)acetamide]", "values": [{"measurement": "IC50", "setting": "[1]", "result": "5 to 50", "unit": "nM"}, {"measurement": "EC50", "setting": "[2]", "result": "> 100", "unit": "nM"}]}
{"smiles": "CCc1cc(-c2cc(NC(=O)Cc3cccc(C(F)(F)F)c3)nn2C)cc2cnc(N[C@H]3CC[C@H](N(C)CCOC)CC3)nc12", "note": "[Compound 46, N-(5-(8-ethyl-2-(((1r,4r)-4-((2-methoxyethyl)(methyl)amino)cyclohexyl)amino)quinazolin-6-yl)-1-methyl-1H-pyrazol-3-yl)-2-(3-(trifluoromethyl)phenyl)acetamide]", "values": [{"measurement": "IC50", "setting": "[1]", "result": "> 100", "unit": "nM"}]}
{"smiles": "CCc1cc(-c2cc(NC(=O)Nc3cc(C(F)(F)F)cc(C(F)(F)F)c3)nn2C)cc2cnc(N[C@H]3CC[C@H](N)CC3)nc12", "note": "[Compound 21, 1-(5-(2-(((1r,4r)-4-aminocyclohexyl)amino)-8-ethylquinazolin-6-yl)-1-methyl-1H-pyrazol-3-yl)-3-(3,5-bis(trifluoromethyl)phenyl)urea]", "values": [{"measurement": "IC50", "setting": "[1]", "result": "50 to 100", "unit": "nM"}]}
{"smiles": "CCc1cc(-c2cc(NC(=O)[C@H](N)c3ccccc3)nn2C)cc2cnc(N[C@H]3CC[C@H](N)CC3)nc12", "note": "[Compound 22, (R)-2-amino-N-(5-(2-(((1r,4r)-4-aminocyclohexyl)amino)-8-ethylquinazolin-6-yl)-1-methyl-1H-pyrazol-3-yl)-2-phenylacetamide]", "values": [{"measurement": "IC50", "setting": "[1]", "result": "> 100", "unit": "nM"}]}
{"smiles": "CCc1cc(-c2cc(NC(=O)[C@@H](N)c3ccccc3)nn2C)cc2cnc(N[C@H]3CC[C@H](N)CC3)nc12", "note": "[Compound 24, (S)-2-amino-N-(5-(2-(((1r,4r)-4-aminocyclohexyl)amino)-8-ethylquinazolin-6-yl)-1-methyl-1H-pyrazol-3-yl)-2-phenylacetamide]", "values": [{"measurement": "IC50", "setting": "[1]", "result": "> 100", "unit": "nM"}]}
{"smiles": "CCc1cc(-c2cc(NC(=O)Cc3cc(C(F)(F)F)ccc3C(F)(F)F)nn2C)cc2cnc(N[C@H]3CC[C@](C)(N)CC3)nc12", "note": "[Compound 49, N-(5-(2-(((1r,4r)-4-amino-4-methylcyclohexyl)amino)-8-ethylquinazolin-6-yl)-1-methyl-1H-pyrazol-3-yl)-2-(2,5-bis(trifluoromethyl)phenyl)acetamide]", "values": [{"measurement": "IC50", "setting": "[1]", "result": "50 to 100", "unit": "nM"}]}
{"smiles": "CCc1cc(-c2cc(NC(=O)Cc3cccc(C(F)(F)F)c3)nn2C)cc2cnc(N[C@H]3CC[C@H](O)CC3)nc12", "note": "[Compound 3, N-(5-(8-ethyl-2-(((1r,4r)-4-hydroxycyclohexyl)amino)quinazolin-6-yl)-1-methyl-1H-pyrazol-3-yl)-2-(3-(trifluoromethyl)phenyl)acetamide]", "values": [{"measurement": "IC50", "setting": "[1]", "result": "> 100", "unit": "nM"}]}
{"smiles": "CCc1cc(-c2cc(NC(=O)[C@@H](O)c3ccccc3)nn2C)cc2cnc(N[C@H]3CC[C@H](N)CC3)nc12", "note": "[Compound 15, (S)-N-(5-(2-(((1r,4r)-4-aminocyclohexyl)amino)-8-ethylquinazolin-6-yl)-1-methyl-1H-pyrazol-3-yl)-2-hydroxy-2-phenylacetamide]", "values": [{"measurement": "IC50", "setting": "[1]", "result": "5 to 50", "unit": "nM"}]}
{"smiles": "CCc1cc(-c2cc(NC(=O)Cc3cccc(C#N)c3)nn2C)cc2cnc(N[C@H]3CC[C@H](N)CC3)nc12", "note": "[Compound 17, N-(5-(2-(((1r,4r)-4-aminocyclohexyl)amino)-8-ethylquinazolin-6-yl)-1-methyl-1H-pyrazol-3-yl)-2-(3-cyanophenyl)acetamide]", "values": [{"measurement": "IC50", "setting": "[1]", "result": "5 to 50", "unit": "nM"}]}
{"smiles": "CCc1cc(-c2cc(NC(=O)Cc3cc(F)cc(C(F)(F)F)c3)nn2C)cc2cnc(N[C@H]3CC[C@H](N)CC3)nc12", "note": "[Compound 20, N-(5-(2-(((1r,4r)-4-aminocyclohexyl)amino)-8-ethylquinazolin-6-yl)-1-methyl-1H-pyrazol-3-yl)-2-(3-fluoro-5-(trifluoromethyl)phenyl)acetamide]", "values": [{"measurement": "IC50", "setting": "[1]", "result": "5 to 50", "unit": "nM"}]}
{"smiles": "CCc1cc(-c2cc(NC(=O)Cc3cc(C(F)(F)F)ccc3C(F)(F)F)nn2C)cc2cnc(N[C@H]3CC[C@@](C)(N)CC3)nc12", "note": "[Compound 50, N-(5-(2-(((1s,4s)-4-amino-4-methylcyclohexyl)amino)-8-ethylquinazolin-6-yl)-1-methyl-1H-pyrazol-3-yl)-2-(2,5-bis(trifluoromethyl)phenyl)acetamide]", "values": [{"measurement": "IC50", "setting": "[1]", "result": "50 to 100", "unit": "nM"}]}
